These results are taken from patent US20130030009A1, “METHOD FOR THE TREATMENT AND/OR PREVENTION OF ORAL ALLERGIC SYMPTIONS OF THE LIPS DUE TO ORAL CONTACT WITH A FOOD ALLERGEN” (priority 2010, published 2013).

The conditions of data set [1]: when swallowed may include headache, GI upset, itchiness, irritability, rash, muscle pain; cited from earlier work.
Data set [2] concerns patients afflicted with oral allergy syndrome. In words: Cromolyn Sodium mouth rinse in patients afflicted with oral allergy syndrome. Type of data set: in vivo. From the text:
Using the teachings of the co-pending patent application entitled “PREPARATIONS FOR TOPICAL PREVENTION AND/OR TREATMENT OF ORAL […] SYMPTOMS DUE TO ORAL CONTACT WITH FRUITS AND/OR VEGETABLES”, filed Dec. […] These patients experienced much relief of their oral allergy and throat allergy symptoms. […] Thus, it seems that sometimes mouth rinsing of Cromolyn Sodium fails to deliver sufficient Cromolyn Sodium to the mast cells of the lip.

For `O=C(O)c1cc(=O)c2c(OCC(O)COc3cccc4oc(C(=O)O)cc(=O)c34)cccc2o1` [Cromolyn Sodium], the side effects entry in data set [1] was “very uncommon”. In addition, in data set [2], the “lip itchiness of internal and external lip surfaces after mouth rinse” value is “some individuals still experienced lip itchiness”; the “relief of oral allergy and throat allergy symptoms” value is given as “much relief”.
